According to patent publication US8586292B2, “Methods for identifying compounds for treatment of thrombotic condition” (priority 2002, dated 2013):

What was measured:
Type in all cases: cell-based
platelets [1] = assay: Inhibition of clot retraction (thrombin-induced, platelets with fibrinogen)
Protocol: Platelets (2×10^8 platelets/ml) were incubated with either piceatannol at a final concentration of 40 μg/ml, calpeptin at a final concentration of 200 μg/ml, or vehicle DMSO for 30 minutes in the dark. To each sample, fibrinogen was added to a final concentration of 300 nM, 1 mM Ca^2+, and 2 mM Mg^2+, 10 minutes prior to the addition of 0.5 unit/ml of thrombin. The clots were incubated for 30 minutes at 37° C. and then transferred to ice before taking photographs. Tubes: 1, vehicle control treated sample without the addition of thrombin; 2, vehicle control treated sample; 3, piceatannol treated sample; 4, calpeptin treated sample.
To determine the effect of the syk kinase inhibitor piceatannol and the calpain inhibitor calpeptin, the following experiments were carried out. Platelets (2×10^8 platelets/ml) were incubated with either piceatannol at a final concentration of 40 μg/ml, calpeptin at a final concentration of 200 μg/ml, or vehicle DMSO for 30 minutes in the dark. To each sample, fibrinogen was added to a final concentration of 300 nM, 1 mM Ca^2+, and 2 mM Mg^2+, 10 minutes prior to the addition of 0.5 unit/ml of thrombin. The clots were incubated for 30 minutes at 37° C. and then transferred to ice before taking photographs. […]

platelets [2] = assay: Clot lysis in the presence of platelets (t-PA/Glu-plasminogen, fluorescent fibrinogen release); details: for Clot Lysis in the Presence of Platelets (value relative to control designated as 1): 90 min 37 C, t-PA 2 U/ml, Glu-plasminogen 20 ug/ml; for fibrinolysis of clots, of that of the control: clots made and lysed in the presence of platelets
Protocol: To assess the effect of piceatannol and calpeptin on the fibrinolytic effect of t-PA and plasminogen in the presence of platelets, we designed a two step procedure by modifying the fibrinolytic assay as described by Fay et al. (Blood, 83, 351-356, 1994). First, we developed a retracted clot in the presence of fluorescence tagged fibrinogen in tubes containing platelets by the addition of thrombin. The residual fluid was taken out and platelets were added to each tube either treated with piceatannol, calpeptin and the vehicle control DMSO respectively. Glu-plasminogen, t-PA were added and the reaction was started by the addition of thrombin. After 90 minutes, the fluid from each tube was taken out and put in separate microfuge tubes followed by centrifugation. The detection of fluorescence in the supernatant was a measure of clot lysis. To form the clot, Oregon green 488 conjugated fibrinogen (fluorescent, from Molecular Probe) at 300 nM final concentration, 1 mM Ca^2+, 2 mM Mg^2+, was added to platelets at 2×10^8/ml concentration in 0.5 ml. The clot retraction was started with the addition of 0.5 unit/ml thrombin. The tubes were kept at 37° C. in dark for 1 hour until the clot retraction was complete. The residual fluid was taken out from each tube. To initiate clot lysis, platelets at 2×10^8/ml concentration were treated with either 40 ug/ml piceatannol, 200 ug/ml calpeptin or vehicle DMSO. In 0.25 ml of each, Glu-plasminogen was added to a final concentration of 20 μg/ml, and t-PA was added to a final concentration of 2 U/ml. The reaction was started with the addition of thrombin at final concentration of 0.5 U/ml. The tubes were kept at 37° C. for 90 minutes. The fluid from each tube was taken in separate microfuge tubes and centrifuged at cold at 14000 rpm for 10 minutes. The supernatants were isolated. Each supernatant was diluted to 5 times and fluorescence in each sample was measured at excitation: 495 nm and emission: 525 nm.

platelets [3] = assay: Nitric oxide production from platelets (NO-501 monitor, TRAP-stimulated); details: 200 ug/ml, 20 uM TRAP, read for 300 seconds
Protocol: FIGS. 2A and 2B show the effect of calpeptin on NO production. Platelets at 2×10^8/ml were pre-incubated with either calpeptin at final concentration 200 ug/ml or vehicle DMSO for 30 minutes in the dark. To a final volume of 0.5 ml, fibrinogen was added to a final concentration of 1 mg/ml, 1 mM Ca^2+, and 2 mM Mg^2+, and […]) to a final concentration of 20 μM. The tube was placed in the NO-501 monitor to measure NO production and the platelets are stirred with a magnetic stirrer. TRAP (Thrombin Receptor Agonist Peptide) at a final concentration of 20 μM was added to start the reaction. […] The readings were taken for 300 seconds (5 minutes). FIGS. 3A and 3B show the effect of piceatannol on NO production. Platelets at 2×10^8/ml were pre-incubated with either piceatannol at final concentration 2.5 ug/ml or vehicle DMSO for 30 minutes in the dark. To a final volume of 0.5 ml, fibrinogen was added to a final concentration of 1 mg/ml, 1 mM Ca^2+, and 2 mM Mg^2+, and GPRP to a final concentration of 20 μM. The tube was placed in the NO-501 monitor to measure NO production and the platelets are stirred with a magnetic stirrer. TRAP (Thrombin Receptor Agonist Peptide) at a final concentration of 20 μM was added to start the reaction. […] The readings were taken for 300 seconds (5 minutes). […]

platelets [4] = assay: Platelet aggregation (TRAP-stimulated, recorded together with NO production); details: 200 ug/ml
Protocol: FIGS. 2A and 2B show the effect of calpeptin on NO production. Platelets at 2×10^8/ml were pre-incubated with either calpeptin at final concentration 200 ug/ml or vehicle DMSO for 30 minutes in the dark. To a final volume of 0.5 ml, fibrinogen was added to a final concentration of 1 mg/ml, 1 mM Ca^2+, and 2 mM Mg^2+, and GPRP (gly-pro-arg-pro) to a final concentration of 20 μM. The tube was placed in the NO-501 monitor to measure NO production and the platelets are stirred with a magnetic stirrer. TRAP (Thrombin Receptor Agonist Peptide) at a final concentration of 20 μM was added to start the reaction. […] The readings were taken for 300 seconds (5 minutes).
Platelets at 2×10^8/ml were pre-incubated with either calpeptin at final concentration 200 ug/ml or vehicle DMSO for 30 minutes in the dark. To a final volume of 0.5 ml, fibrinogen was added to a final concentration of 1 mg/ml, 1 mM Ca^2+, and 2 mM Mg^2+, and GPRP to a final concentration of 20 μM. The tube was placed in the NO-501 monitor to measure NO production and the platelets are stirred with a magnetic stirrer. TRAP (Thrombin Receptor Agonist Peptide) at a final concentration of 20 μM was added to start the reaction. […] The readings were taken for 300 seconds (5 minutes).

CC(C)(C)n1nc(-c2ccc(Cl)cc2)c2c(N)ncnc21 [PP2]
effect on clot retraction (platelets [1]; 10 uM (data not shown)): did not have any effect on clot retraction

Oc1cc(O)cc(/C=C/c2ccc(O)c(O)c2)c1 [piceatannol]
Clot Lysis in the Presence of Platelets (value relative to control designated as 1) (platelets [2]; 40 ug/ml): 6.2 | fibrinolysis of clots, of that of the control (platelets [2]; 40 ug/ml): about 600%

CCCC[C@@H](C=O)NC(=O)[C@H](CC(C)C)NC(=O)OCc1ccccc1 [calpeptin]
effect on clot retraction (platelets [1]; 200 ug/ml, 30 min pre-incubation, 0.5 unit/ml thrombin, 30 min 37 C): inhibited platelet mediated clot retraction | NO production (platelets [3]): increased and sustained NO production | Clot Lysis in the Presence of Platelets (value relative to control designated as 1) (platelets [2]; 200 ug/ml): 6.2 | fibrinolysis of clots, of that of the control (platelets [2]; 200 ug/ml): about 600% | effect on platelet aggregation (platelets [4]): inhibits both platelet aggregation and clot retraction
